Data: paper PMC9742639, “Inhibition of glycogen synthase kinase-3-beta (GSK3β) blocks nucleocapsid phosphorylation and SARS-CoV-2 replication” (Molecular Biomedicine, 2022)

How the values were obtained:
[1] = system: SARS-CoV-2 variant B.1.617.2 (delta); format: cell-based
[2] = system: SARS-CoV-2 variant BA.1 (omicron); format: cell-based

SMILES: CSc1ccc(-n2cnc3ccc(-c4nnc(CCc5cccc(C#N)c5)o4)cc32)cc1 [P-0717632]
- effect on viral titres, B.1.617.2 [1]: reduced intracellular viral titres
- effect on viral titres, BA.1 [2]: reduced intracellular viral titres
